Assay results as given in the supplement of paper PMC8612539.

System: Mannheimia haemolytica
Assay: minimum inhibitory concentration (MIC)
Method: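 Broth microdilution MIC (Sensititre BOPO7F bovine plate, CLSI methods) of 19 antimicrobials against field isolates of P. multocida, M. haemolytica, H. somni (deep nasopharyngeal swabs) and E. coli, Enterococcus spp. (rectal swabs) from weaned dairy heifers. Incubation 16-24 h at 35 C. MIC is the lowest concentration preventing visible growth. Values with <= or > lie at the tested range limits. Trimethoprim-sulfamethoxazole is given as the trimethoprim component of a 1:19 mixture.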

Compound: COc1cc(Cc2cnc(N)nc2N)cc(OC)c1OC.Cc1cc(NS(=O)(=O)c2ccc(N)cc2)no1 [trimethoprim-sulfamethoxazole]
- minimum inhibitory concentration (isolate (source animal id): 3): ≤ 2 µg/mL
- minimum inhibitory concentration (isolate (source animal id): 8): ≤ 2 µg/mL
- minimum inhibitory concentration (isolate (source animal id): 13): ≤ 2 µg/mL
- minimum inhibitory concentration (isolate (source animal id): 18): ≤ 2 µg/mL
- minimum inhibitory concentration (isolate (source animal id): 21): ≤ 2 µg/mL
- minimum inhibitory concentration (isolate (source animal id): 25): ≤ 2 µg/mL
- minimum inhibitory concentration (isolate (source animal id): 27): ≤ 2 µg/mL
- minimum inhibitory concentration (isolate (source animal id): 28): ≤ 2 µg/mL
- minimum inhibitory concentration (isolate (source animal id): 30): ≤ 2 µg/mL
- minimum inhibitory concentration (isolate (source animal id): 31): ≤ 2 µg/mL
- minimum inhibitory concentration (isolate (source animal id): 32): ≤ 2 µg/mL
- minimum inhibitory concentration (isolate (source animal id): 34): ≤ 2 µg/mL
- minimum inhibitory concentration (isolate (source animal id): 36): ≤ 2 µg/mL
- minimum inhibitory concentration (isolate (source animal id): 37): ≤ 2 µg/mL
- minimum inhibitory concentration (isolate (source animal id): 40): ≤ 2 µg/mL
- minimum inhibitory concentration (isolate (source animal id): 41): ≤ 2 µg/mL
- minimum inhibitory concentration (isolate (source animal id): 43): ≤ 2 µg/mL
- minimum inhibitory concentration (isolate (source animal id): 46): ≤ 2 µg/mL
- minimum inhibitory concentration (isolate (source animal id): 49): ≤ 2 µg/mL
- minimum inhibitory concentration (isolate (source animal id): 50): ≤ 2 µg/mL
- minimum inhibitory concentration (isolate (source animal id): 51): ≤ 2 µg/mL
- minimum inhibitory concentration (isolate (source animal id): 52): ≤ 2 µg/mL
- minimum inhibitory concentration (isolate (source animal id): 53): ≤ 2 µg/mL
- minimum inhibitory concentration (isolate (source animal id): 55): ≤ 2 µg/mL
- minimum inhibitory concentration (isolate (source animal id): 56): ≤ 2 µg/mL
- minimum inhibitory concentration (isolate (source animal id): 57): ≤ 2 µg/mL
- minimum inhibitory concentration (isolate (source animal id): 60): > 2 µg/mL
- minimum inhibitory concentration (isolate (source animal id): 61): ≤ 2 µg/mL
- minimum inhibitory concentration (isolate (source animal id): 64): ≤ 2 µg/mL
- minimum inhibitory concentration (isolate (source animal id): 65): ≤ 2 µg/mL
- minimum inhibitory concentration (isolate (source animal id): 66): > 2 µg/mL
- minimum inhibitory concentration (isolate (source animal id): 67): ≤ 2 µg/mL
- minimum inhibitory concentration (isolate (source animal id): 68): ≤ 2 µg/mL
- minimum inhibitory concentration (isolate (source animal id): 70): ≤ 2 µg/mL
- minimum inhibitory concentration (isolate (source animal id): 72): ≤ 2 µg/mL
- minimum inhibitory concentration (isolate (source animal id): 74): ≤ 2 µg/mL
- minimum inhibitory concentration (isolate (source animal id): 76): ≤ 2 µg/mL
- minimum inhibitory concentration (isolate (source animal id): 80): ≤ 2 µg/mL
- minimum inhibitory concentration (isolate (source animal id): 82): ≤ 2 µg/mL
- minimum inhibitory concentration (isolate (source animal id): 83): ≤ 2 µg/mL
- minimum inhibitory concentration (isolate (source animal id): 84): ≤ 2 µg/mL
- minimum inhibitory concentration (isolate (source animal id): 85): ≤ 2 µg/mL
- minimum inhibitory concentration (isolate (source animal id): 86): ≤ 2 µg/mL
- minimum inhibitory concentration (isolate (source animal id): 87): > 2 µg/mL
- minimum inhibitory concentration (isolate (source animal id): 100): > 2 µg/mL
- minimum inhibitory concentration (isolate (source animal id): 103): ≤ 2 µg/mL
- minimum inhibitory concentration (isolate (source animal id): 107): ≤ 2 µg/mL
- minimum inhibitory concentration (isolate (source animal id): 108): ≤ 2 µg/mL
- minimum inhibitory concentration (isolate (source animal id): 112): ≤ 2 µg/mL
- minimum inhibitory concentration (isolate (source animal id): 113): ≤ 2 µg/mL
- minimum inhibitory concentration (isolate (source animal id): 121): ≤ 2 µg/mL
- minimum inhibitory concentration (isolate (source animal id): 122): ≤ 2 µg/mL
- minimum inhibitory concentration (isolate (source animal id): 123): ≤ 2 µg/mL
- minimum inhibitory concentration (isolate (source animal id): 126): ≤ 2 µg/mL
- minimum inhibitory concentration (isolate (source animal id): 133): ≤ 2 µg/mL
- minimum inhibitory concentration (isolate (source animal id): 135): ≤ 2 µg/mL
- minimum inhibitory concentration (isolate (source animal id): 138): ≤ 2 µg/mL
- minimum inhibitory concentration (isolate (source animal id): 141): ≤ 2 µg/mL
- minimum inhibitory concentration (isolate (source animal id): 142): ≤ 2 µg/mL
- minimum inhibitory concentration (isolate (source animal id): 145): ≤ 2 µg/mL
- minimum inhibitory concentration (isolate (source animal id): 149): ≤ 2 µg/mL
- minimum inhibitory concentration (isolate (source animal id): 151): ≤ 2 µg/mL
- minimum inhibitory concentration (isolate (source animal id): 152): ≤ 2 µg/mL
- minimum inhibitory concentration (isolate (source animal id): 154): ≤ 2 µg/mL
- minimum inhibitory concentration (isolate (source animal id): 159): ≤ 2 µg/mL
- minimum inhibitory concentration (isolate (source animal id): 162): ≤ 2 µg/mL
- minimum inhibitory concentration (isolate (source animal id): 170): ≤ 2 µg/mL
- minimum inhibitory concentration (isolate (source animal id): 171): ≤ 2 µg/mL
- minimum inhibitory concentration (isolate (source animal id): 172): ≤ 2 µg/mL
- minimum inhibitory concentration (isolate (source animal id): 173): ≤ 2 µg/mL
- minimum inhibitory concentration (isolate (source animal id): 179): ≤ 2 µg/mL
- minimum inhibitory concentration (isolate (source animal id): 180): ≤ 2 µg/mL
- minimum inhibitory concentration (isolate (source animal id): 183): ≤ 2 µg/mL
- minimum inhibitory concentration (isolate (source animal id): 186): ≤ 2 µg/mL
- minimum inhibitory concentration (isolate (source animal id): 187): ≤ 2 µg/mL
- minimum inhibitory concentration (isolate (source animal id): 188): ≤ 2 µg/mL
- minimum inhibitory concentration (isolate (source animal id): 190): ≤ 2 µg/mL
- minimum inhibitory concentration (isolate (source animal id): 191): ≤ 2 µg/mL
- minimum inhibitory concentration (isolate (source animal id): 192): ≤ 2 µg/mL
- minimum inhibitory concentration (isolate (source animal id): 201): ≤ 2 µg/mL
- minimum inhibitory concentration (isolate (source animal id): 202): ≤ 2 µg/mL
- minimum inhibitory concentration (isolate (source animal id): 209): ≤ 2 µg/mL
- minimum inhibitory concentration (isolate (source animal id): 211): ≤ 2 µg/mL
- minimum inhibitory concentration (isolate (source animal id): 220): ≤ 2 µg/mL
- minimum inhibitory concentration (isolate (source animal id): 221): ≤ 2 µg/mL
- minimum inhibitory concentration (isolate (source animal id): 223): ≤ 2 µg/mL
- minimum inhibitory concentration (isolate (source animal id): 233): ≤ 2 µg/mL
- minimum inhibitory concentration (isolate (source animal id): 237): ≤ 2 µg/mL
- minimum inhibitory concentration (isolate (source animal id): 241): ≤ 2 µg/mL
- minimum inhibitory concentration (isolate (source animal id): 252): ≤ 2 µg/mL
- minimum inhibitory concentration (isolate (source animal id): 253): ≤ 2 µg/mL
- minimum inhibitory concentration (isolate (source animal id): 259): ≤ 2 µg/mL
- minimum inhibitory concentration (isolate (source animal id): 260): ≤ 2 µg/mL
- minimum inhibitory concentration (isolate (source animal id): 262): ≤ 2 µg/mL
- minimum inhibitory concentration (isolate (source animal id): 282): ≤ 2 µg/mL
- minimum inhibitory concentration (isolate (source animal id): 287): ≤ 2 µg/mL
- minimum inhibitory concentration (isolate (source animal id): 288): ≤ 2 µg/mL
- minimum inhibitory concentration (isolate (source animal id): 291): ≤ 2 µg/mL
- minimum inhibitory concentration (isolate (source animal id): 293): ≤ 2 µg/mL
- minimum inhibitory concentration (isolate (source animal id): 298): ≤ 2 µg/mL
- minimum inhibitory concentration (isolate (source animal id): 299): ≤ 2 µg/mL
- minimum inhibitory concentration (isolate (source animal id): 300): ≤ 2 µg/mL
- minimum inhibitory concentration (isolate (source animal id): 302): ≤ 2 µg/mL
- minimum inhibitory concentration (isolate (source animal id): 304): ≤ 2 µg/mL
- minimum inhibitory concentration (isolate (source animal id): 306): ≤ 2 µg/mL
- minimum inhibitory concentration (isolate (source animal id): 308): ≤ 2 µg/mL
- minimum inhibitory concentration (isolate (source animal id): 309): ≤ 2 µg/mL
- minimum inhibitory concentration (isolate (source animal id): 313): ≤ 2 µg/mL
- minimum inhibitory concentration (isolate (source animal id): 318): ≤ 2 µg/mL
- minimum inhibitory concentration (isolate (source animal id): 320): ≤ 2 µg/mL
- minimum inhibitory concentration (isolate (source animal id): 321): ≤ 2 µg/mL
- minimum inhibitory concentration (isolate (source animal id): 323): ≤ 2 µg/mL
- minimum inhibitory concentration (isolate (source animal id): 324): ≤ 2 µg/mL
- minimum inhibitory concentration (isolate (source animal id): 326): ≤ 2 µg/mL
- minimum inhibitory concentration (isolate (source animal id): 328): ≤ 2 µg/mL
- minimum inhibitory concentration (isolate (source animal id): 329): ≤ 2 µg/mL
- minimum inhibitory concentration (isolate (source animal id): 333): ≤ 2 µg/mL
- minimum inhibitory concentration (isolate (source animal id): 335): ≤ 2 µg/mL
- minimum inhibitory concentration (isolate (source animal id): 338): ≤ 2 µg/mL
